Experimental data: patent publication US12227533B2, “Crystalline forms and methods of producing crystalline forms of a compound” (Viking Therapeutics, Inc., priority 2018, dated 2025)
≈ marks a conversion by molar mass, not a printed value.

Tests used:
Format in all cases: physicochemical
[1] = Storage in humidity chamber at 96% r.h., solid form checked by XRPD; conditions: for solid form by XRPD after storing in humidity chamber: 96% r.h.
Protocol: Desolvation of the solvates tends to produce the amorphous form.
(§1) (approx. ±0.1%). After storing for 3 days at 96% r.h. at room temperature (Test 49), FIG. 29a, and at 40° C. […] The water uptake measured by the Karl Fischer method was very low (<0.2%). […] The broad background in the XRPD diagram, FIG. 26, is due to water remaining in the sample after careful drying at room temperature following filtration of the suspension. The Karl Fischer result indicates 45% water content.

[2] = Phase equilibration experiment in water, solid form checked by XRPD; conditions: stirring 3 days, 23° C. (room temperature)
Protocol: as §1

[3] = Dynamic vapor sorption (DVS)
Protocol: The sample (9.869 mg) was placed on a Pt pan, and the sample was allowed to equilibrate at 25° C. at 50% relative humidity (r.h.) before starting a pre-defined humidity program. The predefined humidity programs include 1.0 hours 50%, from 50% r.h. to 0% r.h.; 5% r.h. per hour, 5 hours at 0% r.h., from 0% r.h. to 93% r.h.; 5% r.h. per hour, 5 hours at 93% r.h., from 93% r.h. to 50% r.h.; and 5% r.h. per hour, 1 hours at 50% r.h.
as §1

[4] = Phase equilibration experiments in EtOAc/heptane 1:7 v/v; conditions: 3 days
[5] = Karl Fischer moisture analysis after humidity storage; conditions: after storing 3 days at 96% r.h.
Protocol: as §1, with “Karl Fischer moisture analyses were carried out according to standard procedures. […] (approx.” for “(approx.”

[6] = Measurement of the approximate solubility at ambient temperature; conditions: organic solvent or mixture, 23° C.
Protocol: In some embodiments, to determine the approximate solubility at room temperature, solvent was added in steps to the solid material. After every addition, the sample was well stirred. The addition of solvent was continued until complete dissolution or until 20 ml of solvent was added.
In other embodiments, aliquots of the test solvent were added to an accurately weighed amount of the compound of Formula I in small increments (usually 100-1000 μL), with sonication until complete dissolution was obtained, if possible. Dissolution was determined visually. The actual solubilities may be higher than reported due to slow dissolution rates or the use of excess solvent. The approximate solubility was determined in mg/mL to the nearest whole number.
The approximate solubility at ambient temperature must be known in order to carry out systematic crystallization experiments.

In the case of `Cc1cc(OC[P@@]2(=O)OCC[C@@H](c3cccc(Cl)c3)O2)cc(C)c1Cc1ccc(O)c(C(C)C)c1` [THF solvate], the “solid form by XRPD after storing in humidity chamber” value (shortened to “solid form by XRPD after storing”) ([1]; 23° C. (room temperature), 8 weeks) is reported as “a mixture of the solvate and the amorphous form”.
For `Cc1cc(OC[P@@]2(=O)OCC[C@@H](c3cccc(Cl)c3)O2)cc(C)c1Cc1ccc(O)c(C(C)C)c1` [Crystal form C], the “solid form by XRPD after phase equilibration in water” value [2] was “no transformation of the crystal form”, the “solid form by XRPD after phase equilibration in water” value ([2]; listed as crystalline Form C) was “no transformation” and the “water uptake (DVS)” value ([3]; FIG. 29a) was “less than 0.2 % by weight”. The “solid form by XRPD following DVS analysis” value ([3]; FIGS. 24 and 25) was “did not transition to a different polymorph”, the hygroscopicity ([3]; conclusion from DVS and humidity tests) was “non-hygroscopic” and the “solid form by XRPD after storing” value ([1]; 23° C. (room temperature), 3 days) was “no transformation of the crystal form”. The “solid form by XRPD after storing” value ([1]; 40° C., 3 days) was “no transformation of the crystal form”, the hydrate formation ([1]; conclusion from DVS, humidity storage and water equilibration) was “does not show any evidence of hydrate formation” and the “solid form after phase equilibration in EtOAc/heptane 1:7 v/v” value ([4]; 78° C.) was “no transformation”. For the same molecule, the “solid form after phase equilibration in EtOAc/heptane 1:7 v/v” value ([4]; room temperature) was “no transformation” and the “water uptake measured by the Karl Fischer method” value [5] was less than 0.2%.
With `Cc1cc(OC[P@@]2(=O)OCC[C@@H](c3cccc(Cl)c3)O2)cc(C)c1Cc1ccc(O)c(C(C)C)c1` [Starting Material A] the solubility ([6]; methyl ethyl ketone, thermodynamic from solid, methy ethyl ketone) was greater than 480 mg/mL, the solubility ([6]; thermodynamic from solid, 1-octanol) was greater than 200 mg/mL and the solubility ([6]; thermodynamic from solid, 2,2,2-trifluoroethanol) was roughly 195 mg/mL (≈ 379 mM). For the same molecule, the solubility ([6]; thermodynamic from solid, EtOAc) was roughly 772 mg/mL (≈ 1500 mM), the solubility ([6]; thermodynamic from solid, EtOAc/n-heptane 75:25 v/v) was greater than 200 mg/mL and the solubility ([6]; thermodynamic from solid, N-methyl-2-pyrrolidone (NMP)) was greater than 200 mg/mL. The solubility ([6]; thermodynamic from solid, THF) was greater than 384 mg/mL, the solubility ([6]; thermodynamic from solid, THF/water 75:25 v/v) was 190 mg/mL (≈ 369 mM) and the solubility ([6]; thermodynamic from solid, acetic acid) was greater than 200 mg/mL. The solubility ([6]; thermodynamic from solid, acetone/n-heptane 75:25 v/v) was greater than 200 mg/mL, the solubility ([6]; thermodynamic from solid, acetone/water 75:25 v/v) was greater than 200 mg/mL and the solubility ([6]; thermodynamic from solid, acetonitrile) was greater than 480 mg/mL. For the same molecule, the solubility ([6]; thermodynamic from solid, acetonitrile/water 75:25 v/v) was greater than 200 mg/mL, the solubility ([6]; thermodynamic from solid, chloroform) was greater than 388 mg/mL and the solubility ([6]; thermodynamic from solid, dichloromethane) was greater than 480 mg/mL. The solubility ([6]; thermodynamic from solid, ethanol) was greater than 200 mg/mL, the solubility ([6]; thermodynamic from solid, ethanol/n-heptane 75:25 v/v) was greater than 200 mg/mL and the solubility ([6]; thermodynamic from solid, ethanol/water 75:25 v/v) was greater than 200 mg/mL. For the same molecule, the solubility ([6]; thermodynamic from solid, methyl nonafluorobutyl ether) was less than 39 mg/mL, the solubility ([6]; thermodynamic from solid, methylcyclohexane) was less than 40 mg/mL and the solubility ([6]; thermodynamic from solid, n-heptane) was less than 38 mg/mL. It also gave a solubility ([6]; thermodynamic from solid, nitrobenzene) greater than 200 mg/mL, a solubility ([6]; thermodynamic from solid, pyridine) greater than 200 mg/mL and a solubility ([6]; thermodynamic from solid, tert-butyl methyl ether (TBME)) greater than 200 mg/mL. For the same molecule, the solubility ([6]; thermodynamic from solid, tetrahydrofuran (THF)/n-heptane 75:25 v/v) was greater than 200 mg/mL and the solubility ([6]; thermodynamic from solid, toluene) was greater than 200 mg/mL.
